In article PMC8750417, “Intracellular Amplifiers of Reactive Oxygen Species Affecting Mitochondria as Radiosensitizers” (Cancers, 2021):

Legend:
[1] = n-octanol/water partition coefficient (logP) by RP-TLC; type: physicochemical; settings: for logP (Hydrolyzed Prodrug): n-octanol/water partition coefficient of the hydrolyzed boronic acid (_BA) form of the prodrug named; for logP (Prodrug): n-octanol/water partition coefficient of the intact prodrug (or control 2c_c), RP-TLC, MOPS pH 7.4
Method: Determination of n-octanol/water partition coefficients (LogP) […]
mixture of dichloromethane/CH3OH at proper concentrations. Commercially available […]
7.4) (6/4, v/v) was used. The solvent migration distance was around 4.5 cm. The plates […]
and its distance was manually measured. All measurements were done in at least triplicate and average values were used in further calculations. All experiments were performed at ambient temperature (22 ± 2 °C). […]

[2] = Prodrug-induced generation of ROS in cell free settings (DCFH/H2O2); settings: relative acceleration of the rate of DCFH fluorescence increase with H2O2, pH 7.4; FeSO4 = 1.0
Excerpt: As previously reported, the NAAF-prodrugs react with ROS like H2O2, first leading to the cleavage of the B-C-bond with the formation of the phenol derivatives (product 2c-1, Figure S49, SI). The latter compounds exist in equilibrium with the corresponding phenolates. The phenolates undergo the spontaneous 1,6-elimination of para-quinone methide (QM) followed by the release of CO2 with the formation of the N-alkylaminoferrocene NAAF drugs (product 2c-2, Figure S46, SI). By using electrospray ionization mass spectrometry (ESI–MS), we confirmed for one representative prodrug 2c that it reacts with H2O2 in cell free settings according to this common mechanism (ESI-MS, Figures S46–S48, SI). The NAAF is further oxidized by H2O2 or molecular oxygen with the generation of drug NAAF^+ and highly toxic HO• or/and O2^•−. Finally, the NAAF^+ is reduced by glutathione (GSH), thereby closing the catalytic cycle, in which the NAAF acts as a catalyst. We evaluated the formation of HO• or/and O2^•− by using 2′,7′-dichlorodihydrofluorescein (DCFH) as a probe (Table 1, Figure S49, SI). This probe is oxidized to the fluorescent product 2′,7′-dichlorofluorescein (DCF) in the presence of HO• or/and O2^•−. […] The lower activity of 2c and 2d correlates with their higher lipophilicity and their correspondingly higher propensity to form aggregates in aqueous solution (Figure S45, SI).
Prodrug-induced generation of ROS in cell free settings
2',7'-Dichlorodihydrofluorescein diacetate (DCFH-DA, 4.9 mg) was dissolved in DMF (100 μL) and mixed with aqueous NaOH (0.1 M, 900 μL). The resulting mixture was incubated for 30 min at 22 °C in the dark to obtain a stock solution of 2',7'-dichlorodihydrofluorescein (DCFH, 10 mM). Next, DCFH (1 µL ) was added to the solution containing MOPS buf fer (100 mM, pH 7.4), N,N,N'N' -e thylenediaminetetraacetic acid (EDTA , 10 mM) and glutathione (GSH , 5 mM) (1 mL, final concentration of DCFH 10 μM). The reaction mixture was heated to 37 °C and H2O2 (1 µL, final concentration 10 mM) was added. The reaction was monitored by fluorescence spectroscopy: λex = 501 nm, λem = 523 nm. After around 5 min, prodrugs (1 mM in DMF, 10 μL) or positive control FeSO4 (1 mM in water, 10 μL) were added, and the fluorescence monitoring was continued until the fluorescence signal growth was stalled after approximately 100 to 300 min. A representative kinetics of ROS […]
The data are presented in Table 1 as relative acceleration of the rate of the fluorescence increase, where the rate of the fluorescence increase obtained in the presence of positive control FeSO4 was set […]
y = a time + b (a = (dF/dt) , min-1)
Figure S49. Increase of the fluorescence intensity (λex = 501 nm, λem = 523 nm) upon oxidation of DCFH by H2O2 in the presence of FeSO4. Experimental details are provided in the description above. The time point of the FeSO4 addition is indicated with a black […]
(also on this page, place not known: ° C µL) buffer N,N,N'N'-ethylenediaminetetraacetic (EDTA, (GSH, ° C FeSO 4 (λ ex λ em Fluorescence (a.u.) (dF/dt)0, min -1 Addition of)
(1 picture or pasted object on this page, not shown here)

A2780 cells = assay: Cell viability, MTT assay, A2780; type: cell-based, human
Method: (§1) Determination of viability of cells in the presence of prodrugs and controls A2780 and BL-2 cells The medium was removed, and the cells were washed two times with DPBS, trypsinated, and resuspended in RPMI 1640 medium (A2780) supplemented with 5% FBS (for 24 h and 48 h assay) or 10% FBS (for 96 h assay) , 1% L-glutamine, and 1% penicillin/streptomycin.
(§2) A2780 cells: This suspension was spread in the wells of a 96 -well microtiter plate (25000 cells for A2780 per well per 100 μL) and left standing at 37 °C in the chamber filled with CO2 (5%) for overnight. Stock solutions of prodrugs of different concentra tions (1 μL, solvent dmso, final concentrations in wells were 2, 5, 10, 30, 50 μM) were added to the wells and incubated for specific periods of time. Four experiments were conducted for each concentration of the prodrug. Finally, 3-(4,5-dimethylthiazol-2-yl)-2,5-diphenyltetrazolium bromide (MTT, 20 μL of the solution prepared by dissolving MTT (5 mg) in DPBS buffer (1 mL)) was added to each well, incubated for 3 h, treated with sodium dodecyl sulfate (SDS) solution (90 μL, 10% solution in 0.01 M aqueous HC l), and incubated overnight. Afterward, the intensity of the absorbance at 590 nm was measured.
(§3) MTT is converted in live cells to blue dye with the absorbance maximum λ max at 590 nm.
The absorbance at 690 nm was taken as a baseline value. The baseline corrected absorbance at 590 nm (A(590 nm) − A(690 nm)) was applied to calculate the relative number of viable cells. IC50 values were determined by fitting the experimental data expressing the number of viable cells (%, Y-axis) versus drug concentration (μM, X-axis) with a line curve and the X-axis value corresponding to 50% viability was considered as IC50 value according to the line curve (Figure S50, Table S2). […]

[3] = test system: chronic lymphocytic leukemia (CLL) cells; assay: Viability of primary CLL cells (CellTiter Glo); type: cell-based, human; settings: viability of CLL vs MNC, 48 h; for 2c at 3.3 and 10 µM
Excerpt: Determination of viability of primary cancer (CLL) and normal (MNC) cells in the […]
Clinical samples from chronic lymphocytic leukemia (CLL) patients (N=6, CLL cells) and healthy donors (N=6; peripheral blood mononuclear cells, MNCs) were collected at the University Hospital Heidelberg, Germany. Informed consent was obtained in accordance with the Declaration of Helsinki. Sample collection and analysis was approved by the ethics committee of the University of Heidelberg (S-254/2016). Blood was separated by a Ficoll gradient (GE Healthcarey), and cells were cryopreserved. Drug sensitivity screening was performed in 384-well format (Greiner Bio One) with 10 different prodrug […]
4x10^4 cells per well. Cells were cultured in RPMI-1640 (Invitrogen) supplemented with penicillin/streptomycin (Invitrogen), L-glutamine (Invitrogen) and 10% pooled and heat inactivated AB-type human serum (Sigma-Aldrich). Cell viability was assessed by quantification of ATP (CellTiter Glo®, Promega) 48 hours after drug application.
Luminescence was measured on a Tecan Infinite F200 Microplate Reader. Viability was calculated as % of solvent (DMSO) treated control. Representative plots of cell viability

[4] = Solubility in RPMI 1640 medium, precipitation seen by bright field optical microscopy; settings: DMSO 1%; for Solubility: 48 h incubation in RPMI 1640, FBS 5%, first signs of precipitation
Method: The latter medium was selected, since we used it for the cellular assays. […] Then we monitored the formation of (not detectable in the previous experiment) aggregated species in prodrug solutions that appeared transparent (concentrations < 50 µM) by using dynamic light scattering. […]
Solubility of drugs in aqueous buffers
Observing prodrug precipitation by using bright field optical microscopy […]
glutamine (1 %), and penicillin/streptomycin (1 %) was filled into 96-well microtiter plates (100 µL for each well) and compounds in DMSO stock solution (1 µL) were added. Each well was monitored by using bright field optical microscopy both immediately after […]

Jurkat cells = assay: Jurkat flow cytometry (AnnexinA5/PI viability, DiIC1(5) MMP, monobromobimane GSH, cell cycle); type: cell-based, human; settings: 48 h incubation
Method: Jurkat cells The cells were counted in MUSE Cell Analyzer using MUSE® Count &Viability Assay Kit (Merck-Millipore, Billerica, MA, USA) and adjusted to a density of 1.0 x 10^5/ml in RPMI 1640 medium (with 10% FCS and 1% glutamine). 9.000 cells per well per 90 µL were seeded into 96 well culture plates. The 30 mM prodrug stock solutions in DMSO were diluted to 300 µM, 100 µM, 30 µM and 10 µM in cell culture medium and 10 µL of the dilutions was pipetted to the cells, receiving final test concentrations of 30 µM, 10 µM, 3 µM and 1 µM. Every concentration was tested in triplicates. Cells with corresponding amounts of DMSO served as negative controls. After 48 h cells were mixed and 25 µL of […]
the cell suspension was incubated with 200 µL of freshly prepared staining solution, consisting of AnnexinA5-Fitc (1 µL), 1,1′,3,3,3′,3′-hexamethylindodicarbocyanine iodide (DiIC1(5), 0.4 µL) (both from ThermoFisher Scientific, Waltham, MA, USA), propidium iodide (PI, 67 ng) and monobromobimane (MBB, 33 µM, both from Sigma-Aldrich, Taufkirchen, Germany) per 1 ml Ringer’s solution (Fresenius Kabi AG, Bad Homburg, Germany). Cells were incubated for 20 min at 4°C and then analyzed in Gallios cytofluorometer™ (Beckman Coulter, Fullerton, CA, USA). Fitc and propidium iodide were excited at 488 nm; Fitc fluorescence was recorded on the FL1 sensor (525/38 nm band pass, BP) and propidium iodide fluorescence was detected on FL3 sensor (620/30 nm BP), DiIC1(5) fluorescence was excited at 638 nm and detected on FL6 sensor at 675/20 nm BP, and monobromobimane fluorescence was excited at 405 nm and detected on FL9 sensor at 430/40 nm BP. To eliminate any fluorescence bleed-through, electronic compensation was used. Data were analyzed employing Kaluza™ software Version 1.2 (Beckman Coulter, Fullerton, CA, USA) and processed in Microsoft Excel (Figures S51-S54, Table S5). Cells negative for Annexin A5-Fitc and propidium iodide were considered viable. IC50 values were determined by fitting the % values of Ax-PI- cells versus drug concentration with a sigmoidal curve using GraphPad Prism software. Reduced glutathione (an intracellular thiol) can be detected by monobromobimane, a dye that becomes fluorescent after non-enzymatic binding to thiols.[S3] For analysis of amount of mitochondrial membrane potential or reduced glutathione the mean fluorescence index (MFI) was determined from viable cells by gating on Ax -PI- events.
Table S5. Effects of the prodrugs on the viability of Jurkat cell lines (IC50 values) after 48

BL-2 cells = assay: Cell viability, MTT assay, BL-2; type: cell-based, human; settings: BL-2, 48 h incubation
Method: as §1, §2, §3
The absorbance at 690 nm was taken as a baseline value. The baseline corrected absorbance at 590 nm (A(590 nm) − A(690 nm)) was applied to calculate the relative number of viable cells. IC50 values were determined by fitting the experimental data expressing the number of viable cells (%, Y-axis) versus drug concentration (μM, X-axis) with a line curve and the X-axis value corresponding to 50% viability was considered as IC50 value according to the line curve (Figure S50, Table S2).
BL-2 cells: The cells were centrifuged, the medium was removed, and the cells were washed two times with DPBS and re-suspended in RPMI 1640 medium containing 5% (48 h incubation) or 10% FBS (96 h incubation), 1% L-glutamine, and 1% penicillin/ streptomycin. This suspension was spread in the wells of a 96-well microtiter plate (50000 cells per well per 100 μL). Other steps were identical to those was described in determination of viability of adherent cells (given above) (Table S3).

SMILES: CCOC(=O)CCCCCn1cc(CN(C(=O)OCc2ccc(B(O)O)cc2)[c-]2cccc2)nn1.[Fe+2].c1cc[cH-]c1 [1_BA, reference compound]
- logP (Hydrolyzed Prodrug) [1]: 2.83 ± 0.07

SMILES: CC1(C)OB(c2ccc(COC(=O)N(Cc3cn(Cc4ccccc4)nn3)[c-]3cccc3)cc2)OC1(C)C.[Fe+2].c1cc[cH-]c1 [2a]
- ROS Release Efficacy [2]: 0.74 ± 0.19
- IC50 (A2780 cells; A2780, 24 h incubation): 23.7 ± 0.6 µM
- IC50 (A2780 cells; A2780, 48 h incubation): 16.2 ± 1.8 µM
- IC50 (A2780 cells; A2780, 96 h incubation): 10.5 ± 0.7 µM
- cancer cell specificity, primary CLL cells vs MNCs [3]: some specificity towards primary CLL cells
- Solubility [4]: 100 µM
- first signs of precipitation ([4]; immediately after dilution in RPMI 1640, FBS 5%): 50 µM
- logP (Hydrolyzed Prodrug) [1]: 2.92 ± 0.14
- logP (Prodrug) [1]: 5.27 ± 0.10

SMILES: O=C(OCc1ccc(B(O)O)cc1)N(Cc1cn(Cc2ccc(Cn3cc(Cc4ccccc4)nn3)cc2)nn1)[c-]1cccc1.[Fe+2].c1cc[cH-]c1 [2c_BA]
- logP (Hydrolyzed Prodrug) [1]: 3.23 ± 0.11

SMILES: CN(C)C(=O)c1ccc(COC(=O)N(Cc2cn(Cc3ccc(Cn4cc(Cc5ccccc5)nn4)cc3)nn2)[c-]2cccc2)cc1.[Fe+2].c1cc[cH-]c1 [2c_c]
- ROS Release Efficacy [2]: 0.050 ± 0.003
- IC50 (A2780 cells; A2780, 96 h incubation): 6.1 ± 1.5 µM
- Solubility [4]: 55 ± 5 µM
- logP (Prodrug) [1]: 3.90 ± 0.08

SMILES: C1=CCC=C1.CC1(C)OB(c2ccc(COC(=O)N(Cc3cn(CCC[P+](c4ccccc4)(c4ccccc4)c4ccccc4)nn3)C3C=CC=C3)cc2)OC1(C)C.[Fe+2] [5c, reference compound]
- IC50 (A2780 cells; A2780, 24 h incubation): 10 ± 3 µM
- IC50 (A2780 cells; A2780, 48 h incubation): 5 ± 2 µM
- IC50 (A2780 cells; A2780, 96 h incubation): 5 ± 2 µM
- IC50 (Jurkat cells): 20 µM
- IC50 (BL-2 cells): 5 µM

SMILES: [Fe+2].c1cc[cH-]c1.c1ccc(Cn2cc(CN[c-]3cccc3)nn2)cc1 [compound 3]
- IC50 (A2780 cells; A2780, 48 h incubation): > 50 µM

SMILES: [Fe+2].c1cc[cH-]c1.c1ccc(CN[c-]2cccc2)cc1 [compound 4]
- IC50 (A2780 cells; A2780, 48 h incubation): > 50 µM
